The test system of assay [1] is DSS-induced colitis mice. The assay can be described thus: DSS-induced colitis mice model (Disease Activity Index, colon length). The class given is in vivo, Balb/c mice. The source says:
FIG. 2: OXA ameliorates the DAI (weight and colitis score) of DSS-induced colitis mice. Mice were orally treated with 5% DSS for 7 days in the presence or in the absence of daily intraperitoneal injection of OxA (0.22 μmoles/kg). Left, determination of gain or loss of weight in the absence of DSS treatment (Control,▴), in the presence of DSS treatment (DSS,▪) and in the presence of DSS associated to OxA treatment (DSS+OxA,●). Right, evaluation of Disease Activity Index (DAI) scored by measuring weight, length of colon, diarrhea and blood presence in the stool in DSS untreated control mice (Control,A), in DSS treated mice (DSS,▪) and in DSS treated mice associated to OxA treatment (DSS+OxA,●).
FIG. 14: Effect of daily ip inoculation of OxA, Suvorexant and Almorexant on the length of colon from DSS—(dextran sulfate sodium) treated mice mimicking the acute ulcerative colitis disease. A. Mice were treated with 5% (w/v) DSS in drinking water and daily injected with 20 μg of OxA (OXA IP), 20 μg of Suvorexant (Suvo) or 20 μg of Almorexant (Almo). Control (wt) or treated DSS mice (DSS) were daily injected with 100 μl PBS. After one week of treatment, mice were sacrificed and the length of colon which represented a good marker of inflammation state, was measured. […] B. quantification of colon length from 5 different DSS-treated mice injected with OxA (DSS+OXA IP), Almorexant (DSS+Almo), Suvorexant (DSS+Suvo) or not injected (WT and DSS). NS, no significant; *, p<0.05; ** p<0.001
Based on these observations, we have investigated the effect of Orexin A (OxA) on acute inflammation in mice treated with Dextran Sulfate Sodium (DSS). OxA was preferentially chosen in these experiments since the presence of two disulphide bridges confers it more stability. DSS induces acute colitis characterized by weight loss, bloody diarrhea, intestinal ulcerations and infiltrations with granulocytes.
DSS-induced colitis mice models: Balb/c mice were orally treated by 5% (w/v) of Dextran Sulfate Sodium (DSS) for 7 days. Orexin treatment was carried out in DSS treated mice by daily intraperitoneal injection of OxA (0.22 μmoles/kg) for 7 days. Weight and colitis symptoms (diarrhea, blood in the stool . . . ) for each mouse was daily measured. After 7 days of treatment, animals were sacrificed and colons were resected to further analyses (size, histological aspect, cytokine assays).
The inventors have thus investigated the effect of daily intraperitoneal inoculation of OxA, Suvorexant and Almorexant in the experimental context of EXAMPLE 1 (colitis). In particular they investigated the effects of the drugs on the length of colon from DSS-(dextran sulfate sodium) treated mice mimicking the acute ulcerative colitis disease. […]

Assay [2] has as its system cytokines secretion in colon extracts. The assay can be described thus: Cytokine assays in colon extracts of DSS-induced colitis mice. The following applies: OxA treatment. Type of assay: in vivo. The procedure: FIG. 3: OXA effects on cytokines secretion in DSS-induced colitis mice. Right, Colons of DSS untreated mice (white), DSS treated mice (gray) and DSS treated mice associated to OxA treatment (black) were resected after animal sacrifice. Then, protein extraction was performed by tissue disruption. Cytokines were determined using Cytokine CBA kits (see Material and Methods). Left, after colon resection, RNA were extracted from colonic tissue and qPCR was performed using specific oligonucleotides for IL8 homolog and IL1B.
These observations are confirmed by histologic aspect of colon epithelium (histologic scoring by a GI pathologist). Thus, OxA has probably an anti-inflammatory effect on DSS-induced colitis. To confirm this hypothesis, we have investigated the anti-inflammatory effect of OxA treatment on cytokines secretion in colon extracts from DSS-treated mice. […] In contrast, OxA has no effect on INFγ, IL10, and IL12 cytokine secretion in colon extracts (FIG. 3).
Cytokine assays: Mice were sacrificed and colons were resected. Proteins were extracted from colon by tissue disruption in PBS using Tissue Lyser (Qiagen, Courtaboeuf, France). Various cytokines (see FIG. 3) were determined using Cytokine CBA kits (BD Sciences, Le Pont de Claix, France).

The test system of assay [3] is colon adenocarcinoma HT-29 cells. The assay can be described thus: Cells growth determination, HT-29 cells. To be noted: 48 hr; OxA 0.1 μM, SB408124 increasing concentrations. The class given is cell-based. The procedure:
FIG. 12: Determination of the inhibition of cellular growth of HEK-OX1R cells and colon adenocarcinoma cells (HT-29) induced by 0.1 μM of OxA or various concentrations of SB408124 antagonist. HEK-OX1R cells (black column) and HT-29 cells (white column) were incubated with 0.1 μM of OxA and indicated increasing concentration of SB408124, and cells were counted after 48 hr incubation. Results are expressed as the percentage of total viable cells.
(§1) Cells growth determination and apoptosis assay: HEK-OX1R cells or colon adenocarcinoma HT-29 cells were seeded, grown and maintained at 37° C. in a humidified 5% CO2/air incubator. After 24 hr culture, cells were treated with or without Orexin-A peptide or SB408124 antagonist, previously dissolved in DMSO, to be tested at the concentration indicated in the figure legends. After 48 hr of treatment, adherent cells were harvested by Trip1E (Life Technologies, Saint Aubin, France) and manually counted. Apoptosis was determined using the Guava PCA system and the Guava nexin kit.

For assay [4] the test system is unchanged. Briefly: Apoptosis assay (annexin V-PE binding, Guava nexin kit) in HT-29 cells. Type of assay: cell-based. The following applies: 48 h; orexin-A 1 μM, SB408124 various concentrations. As to the method: FIG. 13: Effect of orexin-A and SB408124 antagonist on apoptosis in OX1R expressing colon adenocarcinoma cells, HT-29. HT-29 cells were challenged with 1 μM orexin-A or various concentration of SB408124 for 48 h. Apoptosis was measured by determination of annexin V-PE binding, and results are expressed as the percentage of apoptotic cells. Results are means±SE of three experiments. ***P<0.001.
as §1

No end group written: not given here.

As to “OxA: neuropeptide, endogenous ligand of OX1R and OX2R, with two disulphide bridges (QPLPDCCRQKTCSCRLYELLHGAGNHAAGILTL; disulfide (positions not given here); ends not checked; also: two disulphide bridges, pairing not given here; UniProt O43612 34-66, looked up)”, the “Protection from DSS induced acute ulcerative colitis (length of colon)” value in assay [1] (5% DSS in drinking water, 20 μg daily ip, one week) is reported as “protect mice from DSS induced acute ulcerative colitis disease”. Further, in assay [1] (5% DSS orally 7 days, daily intraperitoneal OxA 0.22 μmoles/kg), the “Disease Activity Index (DAI) scored by measuring weight, length of colon, diarrhea and presence of blood in the stool” value is reported as “ameliorates”. In assay [2], the “IL6 secretion in colon extracts” value is “reduces”, the “IL10 secretion in colon extracts” value was “no effect”, the “IL12 secretion in colon extracts” value was “no effect” and the “INFγ secretion in colon extracts” value is recorded as “no effect”. In assay [2], the “TNFα secretion in colon extracts” value was “reduces”. Besides, in assay [2] (qPCR per FIG. 3), the “IL1B in colon extracts” value is listed as “reduces” and the “IL8 homolog in colon extracts” value is recorded as “reduces”. In addition, the “Inhibition of cellular growth of HT-29 cells” value in assay [3] is on record as “strong inhibition”. Moreover, the “Apoptosis in HT-29 cells” value in assay [4] is “induced an apoptotic effect”.

Values taken from patent US20190151304A1, “METHODS AND PHARMACEUTICAL COMPOSITIONS FOR THE TREATMENT OF AUTOIMMUNE INFLAMMATORY” (INSERM (INSTITUT NATIONAL DE LA SANTÉ ET DE LA RECHERCJAE …, priority 2016, published 2019).
